Test results taken from patent publication US20150064252A1, “SOLID DISPERSION FORMULATION OF AN ANTIVIRAL COMPOUND” (Gilead Pharmasset LLC, priority 2013, published 2015).

Experiments:
[1] = Food effect on Compound I pharmacokinetics (fed vs fasted, light or high-fat breakfast); type: in vivo, human; conditions: for AUCinf % GLSM Ratio (Fed/Fasted) / AUClast % GLSM Ratio (Fed/Fasted) / Cmax % GLSM Ratio (Fed/Fasted) / Cmax / AUC(0-inf) / AUC(0-t): 100 mg; for Cmax / AUC(0-inf) / AUC(0-t): human, plasma, oral, N = 12; for AUC(0-inf): read-out: AUCinf GLSM; for AUC(0-t): read-out: AUClast GLSM
[2] = Spray dry feed solution and solid dispersion evaluation (solubility, stability); type: physicochemical
Method: The spray dry feed solution was prepared by solubilizing Compound I and polymer in the feed solvent. In certain cases, aggressive mixing or homogenization can be used to avoid clumping of the composition.
Different polymers were tested for preferred characteristics in the solid dispersions.
The feed solution was initially evaluated for appropriate solvent with regard to solubility, stability, and viscosity. […] Ethanol and methanol-based feed stocks were assessed for preparation ease and spray dried at a range of inlet and outlet temperatures to assess the robustness of the spray dry process. Both solvents gave rapid dissolution of Compound I and copovidone.

[3] = tested on: HCV infection of genotypes 1 to 6; conditions: cited from earlier work
[4] = Pharmacokinetics of Compound I after single and multiple oral doses of solid dispersion tablets; type: in vivo, human; conditions: for half-life: t1/2
Method: The Compound I formulation is prepared as described above by combining Compound I amorphous free base in a 1:1 ratio by mass with copovidone, which is all dissolved in ethanol and spray dried to produce the Compound I solid dispersion. The Compound I solid dispersion is then mixed with various excipients in a dry granulation process to produce tablets that are film coated prior to packaging.
5 mg, 25 mg, 50 mg, and 100 mg tablet formulations were prepared according to Tables 1A and 1B).

[5] = high-fat/high-calorie breakfast vs fasted
[6] = 100 mg fasted, high-fat breakfast cohort (Cohort 6)
[7] = 100 mg fasted, light breakfast cohort (Cohort 5)

Structure (SMILES): COC[C@H]1C[C@@H](c2ncc(-c3ccc4c(c3)COc3cc5c(ccc6nc([C@@H]7CC[C@H](C)N7C(=O)[C@@H](NC(=O)OC)C(C)C)[nH]c65)cc3-4)[nH]2)N(C(=O)[C@H](NC(=O)OC)c2ccccc2)C1 [Compound I, Methyl {(2S)-1-[(2S,5S)-2-(9-{2-[(2S,4S)-1-{(2R)-2-[(methoxycarbonyl)amino]-2-phenylacetyl}-4-(methoxymethyl)pyrrolidin-2-yl]-1H-imidazol-5-yl}-1,11-dihydroisochromeno[4′,3′:6,7]naphtho[1,2-d]imidazol-2-yl)-5-methylpyrrolidin-1-yl]-3-methyl-1-oxobutan-2-yl}carbamate]
- AUCinf % GLSM Ratio (Fed/Fasted) ([1]; high-fat breakfast): 86.30%
- AUClast % GLSM Ratio (Fed/Fasted) ([1]; high-fat breakfast): 86.02%
- Cmax % GLSM Ratio (Fed/Fasted) ([1]; high-fat breakfast): 75.02%
- AUCinf % GLSM Ratio (Fed/Fasted) ([1]; light breakfast): 124.72%
- AUClast % GLSM Ratio (Fed/Fasted) ([1]; light breakfast): 124.84%
- Cmax % GLSM Ratio (Fed/Fasted) ([1]; light breakfast): 134.89%
- effect of food on absorption and bioavailability ([1]; formulated as a solid dispersion): slowed the rate of absorption
- decrease in AUC with food [1, 5]: 14%
- decrease in Cmax with food [1, 5]: 25%
- Cmax [1, 6]: 0.486 µg/mL
- AUC(0-inf) [1, 6]: 3.79 µg·h/mL
- AUC(0-t) [1, 6]: 3.75 µg·h/mL
- Cmax [1, 7]: 0.582 µg/mL
- AUC(0-inf) [1, 7]: 5.47 µg·h/mL
- AUC(0-t) [1, 7]: 5.39 µg·h/mL
- Cmax ([1]; 100 mg fed, high-fat breakfast): 0.364 µg/mL
- AUC(0-inf) ([1]; 100 mg fed, high-fat breakfast): 3.27 µg·h/mL
- AUC(0-t) ([1]; 100 mg fed, high-fat breakfast): 3.22 µg·h/mL
- Cmax ([1]; 100 mg fed, light breakfast): 0.785 µg/mL
- AUC(0-inf) ([1]; 100 mg fed, light breakfast): 6.82 µg·h/mL
- AUC(0-t) ([1]; 100 mg fed, light breakfast): 6.73 µg·h/mL
- increase in AUC with food ([1]; light breakfast vs fasted): 25%
- increase in Cmax with food ([1]; light breakfast vs fasted): 35%
- solubility in feed solvent ([2]; ethanol, methanol, acetone, and dichloromethane (DCM)): excellent solubility
- chemical stability in feed solution ([2]; ethanolic feed solution): good chemical stability
- anti-HCV activity [3]: potent anti-HCV activity
- dose proportionality of exposure (AUC and Cmax) ([4]; human, in vivo): nonlinear PK
- AUC(0-inf) ([4]; human, in vivo, 5 mg): 0.159 µg·h/mL
- AUC(0-t) ([4]; human, in vivo, 5 mg): 0.134 µg·h/mL
- CL/F ([4]; human, in vivo, 5 mg): 58,398.0 mL/h
- Cmax ([4]; human, in vivo, 5 mg): 0.0224 µg/mL
- Tmax ([4]; human, in vivo, 5 mg, Tmax): 1.5 h
- half-life ([4]; human, in vivo, 5 mg): 11.2 h
- AUC(0-inf) ([4]; human, in vivo, 50 mg): 3.02 µg·h/mL
- AUC(0-t) ([4]; human, in vivo, 50 mg): 2.97 µg·h/mL
- CL/F ([4]; human, in vivo, 50 mg): 19,188.4 mL/h
- Cmax ([4]; human, in vivo, 50 mg): 0.371 µg/mL
- Tmax ([4]; human, in vivo, 50 mg, Tmax): 2.5 h
- half-life ([4]; human, in vivo, 50 mg): 13.6 h
- AUC(0-inf) ([4]; human, in vivo, 100 mg): 5.05 µg·h/mL
- AUC(0-t) ([4]; human, in vivo, 100 mg): 4.99 µg·h/mL
- CL/F ([4]; human, in vivo, 100 mg): 24,617.9 mL/h
- Cmax ([4]; human, in vivo, 100 mg): 0.575 µg/mL
- Tmax ([4]; human, in vivo, 100 mg, Tmax): 2.5 h
- half-life ([4]; human, in vivo, 100 mg): 15.7 h
- AUC(0-inf) ([4]; human, in vivo, 150 mg): 4.98 µg·h/mL
- AUC(0-t) ([4]; human, in vivo, 150 mg): 4.93 µg·h/mL
- Cmax ([4]; human, in vivo, 150 mg): 0.608 µg/mL
- Tmax ([4]; human, in vivo, 150 mg, Tmax): 2.75 h
- half-life ([4]; human, in vivo, 150 mg): 16.2 h
- AUC(0-inf) ([4]; human, in vivo, 450 mg): 9.58 µg·h/mL
- AUC(0-t) ([4]; human, in vivo, 450 mg): 9.5 µg·h/mL
- CL/F ([4]; human, in vivo, 450 mg): 53,676.4 mL/h
- Cmax ([4]; human, in vivo, 450 mg): 1.12 µg/mL
- Tmax ([4]; human, in vivo, 450 mg, Tmax): 3.25 h
- half-life ([4]; human, in vivo, 450 mg): 15 h
- Tmax ([4]; human, in vivo, po, median Tmax (time of maximum plasma concentrations)): 1.5 to 3.25 h
- mean plasma concentrations at 24 hours postdose relative to protein-adjusted EC50 for genotype 1 to 6 HCV replicons ([4]; multiple once-daily doses greater than 5 mg): above the protein-adjusted concentration of a compound inhibiting virus replication by 50% (EC50)
